In patent US20190330224A1, “ACC INHIBITORS AND USES THEREOF” (Gilead Apollo, LLC, priority 2015, published 2019):
Values after ≈ are worked out from the molar mass of the structure shown.

What was measured:
Human ACC2 = Human ACC2 (Homo sapiens, UniProt O00763); assay: In vitro ACC2 inhibition assay (ADP-Glo), human ACC2; format: biochemical; settings: 5 nM ACC2, 20 μM ATP, 20 μM acetyl-CoA
C. albicans ATCC 90028 = assay: Anti-Fungal Activity Assay (broth microtiter MIC), C. albicans; format: cell-based, Candida albicans; settings: Candida albicans, ATCC90028, 48 h, 3 replicates; MIC recorded at 48 h; read-out: MIC C. albicans ATCC 90028
How it was run: (§1)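 Broth microdilution per CLSI M27-A3 in RPMI 1640+MOPS, inoculum from overnight Sabouraud dextrose agar colonies at 35° C; compounds from 1 mg/mL DMSO stocks. MIC read visually against growth control at 48 h, with an added 24 h reading for soraphen.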

C. krusei ATCC 6258 = assay: Anti-Fungal Activity Assay (broth microtiter MIC), C. krusei; format: cell-based, Candida krusei; settings: Pichia kudriavzevii, ATCC6258, 48 h, 3 replicates; MIC recorded at 48 h; read-out: MIC C. krusei ATCC 6258
How it was run: as §1

[1] = system: C. parapsilosis ATCC 22019; assay: Anti-Fungal Activity Assay (broth microtiter MIC), C. parapsilosis; format: cell-based, Candida parapsilosis; settings: Lodderomyces parapsilosis, ATCC22019, 48 h, 3 replicates; MIC recorded at 48 h; read-out: MIC C. parapsilosis ATCC 22019
How it was run: as §1

Fungal ACC2 = Fungal ACC2 (UniProt Q00955); settings: read-out: Fungal ACC2 (IC50, in vitro ACC2 inhibition)
Chain of Fungal ACC2 (Q00955 whole entry): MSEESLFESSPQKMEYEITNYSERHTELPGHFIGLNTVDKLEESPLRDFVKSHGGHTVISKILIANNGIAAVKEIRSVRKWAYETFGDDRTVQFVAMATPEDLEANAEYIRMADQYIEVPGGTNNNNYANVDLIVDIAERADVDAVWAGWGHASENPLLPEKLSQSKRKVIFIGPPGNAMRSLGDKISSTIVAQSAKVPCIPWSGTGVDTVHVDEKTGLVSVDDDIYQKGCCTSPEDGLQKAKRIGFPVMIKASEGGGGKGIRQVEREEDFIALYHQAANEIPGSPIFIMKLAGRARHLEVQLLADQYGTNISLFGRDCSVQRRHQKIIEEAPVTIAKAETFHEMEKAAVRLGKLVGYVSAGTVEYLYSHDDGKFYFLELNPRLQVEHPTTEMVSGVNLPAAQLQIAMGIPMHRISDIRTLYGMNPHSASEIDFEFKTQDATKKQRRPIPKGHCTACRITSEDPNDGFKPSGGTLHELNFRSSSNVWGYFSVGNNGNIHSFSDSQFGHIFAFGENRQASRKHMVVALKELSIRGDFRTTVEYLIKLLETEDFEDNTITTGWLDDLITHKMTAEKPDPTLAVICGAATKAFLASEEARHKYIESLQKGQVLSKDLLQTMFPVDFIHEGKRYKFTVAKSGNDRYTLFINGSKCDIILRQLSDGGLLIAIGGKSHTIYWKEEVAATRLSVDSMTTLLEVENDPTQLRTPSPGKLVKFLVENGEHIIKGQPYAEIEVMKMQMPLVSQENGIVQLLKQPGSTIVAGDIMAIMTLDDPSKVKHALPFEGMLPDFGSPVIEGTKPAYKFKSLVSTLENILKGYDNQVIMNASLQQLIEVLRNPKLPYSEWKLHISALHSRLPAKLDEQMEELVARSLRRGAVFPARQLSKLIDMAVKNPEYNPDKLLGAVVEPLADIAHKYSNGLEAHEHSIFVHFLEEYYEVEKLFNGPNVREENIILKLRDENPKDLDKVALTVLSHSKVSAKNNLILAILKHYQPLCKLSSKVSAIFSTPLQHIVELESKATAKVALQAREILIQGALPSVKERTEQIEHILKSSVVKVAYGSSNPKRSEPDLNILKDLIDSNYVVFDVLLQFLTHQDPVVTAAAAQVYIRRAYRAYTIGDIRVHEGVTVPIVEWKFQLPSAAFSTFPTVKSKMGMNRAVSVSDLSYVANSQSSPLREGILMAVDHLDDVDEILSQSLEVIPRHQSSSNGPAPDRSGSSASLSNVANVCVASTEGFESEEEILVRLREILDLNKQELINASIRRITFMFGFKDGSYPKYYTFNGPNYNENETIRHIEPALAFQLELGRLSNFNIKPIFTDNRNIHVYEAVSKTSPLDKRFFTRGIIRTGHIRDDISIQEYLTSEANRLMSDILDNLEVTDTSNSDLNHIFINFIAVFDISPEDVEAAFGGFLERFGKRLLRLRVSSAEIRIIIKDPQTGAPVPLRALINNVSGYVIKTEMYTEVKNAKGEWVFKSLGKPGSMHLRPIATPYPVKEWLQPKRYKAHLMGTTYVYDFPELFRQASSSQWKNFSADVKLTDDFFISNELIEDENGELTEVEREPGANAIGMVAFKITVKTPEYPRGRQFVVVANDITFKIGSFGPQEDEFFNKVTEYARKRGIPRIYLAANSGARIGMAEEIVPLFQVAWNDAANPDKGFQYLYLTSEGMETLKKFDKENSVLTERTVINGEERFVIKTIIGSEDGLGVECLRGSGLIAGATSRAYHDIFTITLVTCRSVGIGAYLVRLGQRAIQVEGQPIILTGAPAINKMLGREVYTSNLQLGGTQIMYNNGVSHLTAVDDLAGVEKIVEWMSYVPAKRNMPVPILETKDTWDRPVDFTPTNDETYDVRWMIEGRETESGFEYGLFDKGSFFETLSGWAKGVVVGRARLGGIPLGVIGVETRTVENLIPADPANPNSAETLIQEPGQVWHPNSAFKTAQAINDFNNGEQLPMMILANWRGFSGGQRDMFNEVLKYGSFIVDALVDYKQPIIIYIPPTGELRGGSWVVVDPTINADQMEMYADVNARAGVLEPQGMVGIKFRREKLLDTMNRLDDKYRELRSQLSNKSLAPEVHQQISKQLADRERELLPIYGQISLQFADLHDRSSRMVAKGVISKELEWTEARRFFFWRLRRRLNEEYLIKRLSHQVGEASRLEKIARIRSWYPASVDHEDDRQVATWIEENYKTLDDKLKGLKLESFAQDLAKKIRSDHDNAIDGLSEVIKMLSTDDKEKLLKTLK

Chain of Human ACC2 (O00763 whole entry): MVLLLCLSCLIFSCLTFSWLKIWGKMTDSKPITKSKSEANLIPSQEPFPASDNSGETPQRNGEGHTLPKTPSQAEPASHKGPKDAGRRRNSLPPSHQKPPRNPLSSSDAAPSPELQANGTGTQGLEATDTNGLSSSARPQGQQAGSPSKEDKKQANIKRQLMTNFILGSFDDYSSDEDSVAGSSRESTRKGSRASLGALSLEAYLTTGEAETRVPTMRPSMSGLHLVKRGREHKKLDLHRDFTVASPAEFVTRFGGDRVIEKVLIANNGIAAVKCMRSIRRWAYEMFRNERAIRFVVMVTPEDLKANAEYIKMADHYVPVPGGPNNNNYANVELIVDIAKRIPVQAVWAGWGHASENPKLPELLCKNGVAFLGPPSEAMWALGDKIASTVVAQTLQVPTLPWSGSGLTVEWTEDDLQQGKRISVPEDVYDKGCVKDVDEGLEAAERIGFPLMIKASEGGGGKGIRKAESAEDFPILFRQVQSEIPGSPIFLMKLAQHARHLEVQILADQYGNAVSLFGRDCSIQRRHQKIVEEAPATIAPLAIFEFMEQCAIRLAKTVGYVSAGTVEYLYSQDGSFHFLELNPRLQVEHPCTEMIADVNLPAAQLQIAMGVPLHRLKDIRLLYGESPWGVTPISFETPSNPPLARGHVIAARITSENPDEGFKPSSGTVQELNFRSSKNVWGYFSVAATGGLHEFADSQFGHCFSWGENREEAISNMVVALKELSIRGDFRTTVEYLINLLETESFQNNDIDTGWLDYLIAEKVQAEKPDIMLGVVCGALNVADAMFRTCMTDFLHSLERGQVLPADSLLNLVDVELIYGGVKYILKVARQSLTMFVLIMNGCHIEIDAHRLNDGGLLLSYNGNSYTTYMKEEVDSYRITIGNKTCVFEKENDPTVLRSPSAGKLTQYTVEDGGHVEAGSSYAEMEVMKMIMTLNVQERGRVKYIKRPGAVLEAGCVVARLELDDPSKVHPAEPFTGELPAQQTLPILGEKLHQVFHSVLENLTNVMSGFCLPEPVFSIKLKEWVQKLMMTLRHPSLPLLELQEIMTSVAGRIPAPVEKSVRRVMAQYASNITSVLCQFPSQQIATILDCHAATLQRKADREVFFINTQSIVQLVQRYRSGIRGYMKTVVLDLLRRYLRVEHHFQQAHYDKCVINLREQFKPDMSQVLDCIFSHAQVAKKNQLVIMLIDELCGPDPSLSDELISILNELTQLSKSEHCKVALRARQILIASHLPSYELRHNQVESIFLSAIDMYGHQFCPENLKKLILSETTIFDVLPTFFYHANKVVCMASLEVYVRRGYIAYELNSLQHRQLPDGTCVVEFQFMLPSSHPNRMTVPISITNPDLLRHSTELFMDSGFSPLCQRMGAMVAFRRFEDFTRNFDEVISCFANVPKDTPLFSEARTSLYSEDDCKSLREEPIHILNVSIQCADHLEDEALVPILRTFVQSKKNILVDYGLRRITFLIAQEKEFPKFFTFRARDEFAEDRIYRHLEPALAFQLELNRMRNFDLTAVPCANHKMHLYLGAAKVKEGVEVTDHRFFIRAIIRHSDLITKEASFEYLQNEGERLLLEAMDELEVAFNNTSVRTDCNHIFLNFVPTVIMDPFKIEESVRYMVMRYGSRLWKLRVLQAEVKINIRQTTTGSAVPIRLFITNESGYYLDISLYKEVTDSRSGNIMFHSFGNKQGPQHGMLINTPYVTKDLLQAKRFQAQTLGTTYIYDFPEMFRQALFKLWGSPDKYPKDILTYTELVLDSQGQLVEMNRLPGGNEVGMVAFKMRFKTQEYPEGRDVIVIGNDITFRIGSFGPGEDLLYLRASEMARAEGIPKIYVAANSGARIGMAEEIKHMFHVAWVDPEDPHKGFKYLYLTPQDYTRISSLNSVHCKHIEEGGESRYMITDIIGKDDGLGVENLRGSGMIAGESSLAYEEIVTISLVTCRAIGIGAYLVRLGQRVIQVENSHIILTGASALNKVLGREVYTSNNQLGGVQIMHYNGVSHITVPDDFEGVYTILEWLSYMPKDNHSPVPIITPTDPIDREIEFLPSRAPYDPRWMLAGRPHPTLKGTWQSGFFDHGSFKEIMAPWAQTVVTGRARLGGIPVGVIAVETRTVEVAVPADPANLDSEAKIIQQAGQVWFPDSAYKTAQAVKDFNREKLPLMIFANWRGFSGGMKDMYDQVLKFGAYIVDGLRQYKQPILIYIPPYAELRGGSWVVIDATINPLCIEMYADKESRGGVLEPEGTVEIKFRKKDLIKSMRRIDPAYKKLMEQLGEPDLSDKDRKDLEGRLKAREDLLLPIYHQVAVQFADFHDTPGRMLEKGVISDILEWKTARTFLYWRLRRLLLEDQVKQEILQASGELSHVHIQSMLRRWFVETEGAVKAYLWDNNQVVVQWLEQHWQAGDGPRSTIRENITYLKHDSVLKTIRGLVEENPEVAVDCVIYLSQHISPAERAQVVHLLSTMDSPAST

Row | Structure (SMILES) | IC50 (Human ACC2) | MIC (C. albicans ATCC 90028) | MIC (C. krusei ATCC 6258) | MIC [1] | IC50 (Fungal ACC2)
1 | COCCO[C@@H](Cn1c(=O)n([C@H]2CCN(C(C)C)C2=O)c(=O)c2c(C)c(-n3nccn3)sc21)c1cc(F)ccc1OC [Compound I-104, 1-((R)-2-(5-fluoro-2-methoxyphenyl)-2-(2-methoxy-ethoxy)ethyl)-3-((S)-1-isopropyl-2-oxopyrrolidin-3-yl)-5-methyl-6-(2H-1,2,3-triazol-2-yl)thieno[2,3-d]pyrimidine-2,4(1H,3H)-dione] | 10 to 100 nM | 2.1 to 4 µg/mL (≈ 3.5 to 6.66 µM) | 2.1 to 4 µg/mL (≈ 3.5 to 6.66 µM) | 2.1 to 4 µg/mL (≈ 3.5 to 6.66 µM) | 0.7 to 2 nM
2 | COCCO[C@@H](Cn1c(=O)n([C@@H]2CCN(C(C)C)C2=O)c(=O)c2c(C)c(-n3nccn3)sc21)c1cc(F)ccc1OC [Compound I-105, 1-((R)-2-(5-fluoro-2-methoxyphenyl)-2-(2-methoxy-ethoxy)ethyl)-3-((R)-1-isopropyl-2-oxopyrrolidin-3-yl)-5-methyl-6-(2H-1,2,3-triazol-2-yl)thieno[2,3-d]pyrimidine-2,4(1H,3H)-dione] | 10 to 100 nM | 2.1 to 4 µg/mL (≈ 3.5 to 6.66 µM) | 2.1 to 4 µg/mL (≈ 3.5 to 6.66 µM) | 2.1 to 4 µg/mL (≈ 3.5 to 6.66 µM) | 2 to 10 nM
3 | COc1ccc(F)cc1[C@H](COc1nc2sc(-n3nccn3)c(C)c2c(=O)n1[C@@H]1CC(=O)N(C)C1)OCCO [Compound I-112, 2-((R)-2-(5-fluoro-2-methoxyphenyl)-2-(2-hydroxy-ethoxy)ethoxy)-5-methyl-3-((R)-1-methyl-5-oxopyrrolidin-3-yl)-6-(2H-1,2,3-triazol-2-yl)thieno[2,3-d]pyrimidin-4(3H)-one] | > 1000 nM | 2.1 to 4 µg/mL (≈ 3.76 to 7.16 µM) | 2.1 to 4 µg/mL (≈ 3.76 to 7.16 µM) | 2.1 to 4 µg/mL (≈ 3.76 to 7.16 µM) | 10 to 100 nM
4 | COCCO[C@@H](Cn1c(=O)n([C@@]2(C)CNC(=O)C2)c(=O)c2c(C)c(-n3nccn3)sc21)c1cc(F)ccc1OC [Compound I-114, 1-((R)-2-(5-fluoro-2-methoxyphenyl)-2-(2-methoxyethoxy)ethyl)-5-methyl-3-((R)-3-methyl-5-oxopyrrolidin-3-yl)-6-(2H-1,2,3-triazol-2-yl)thieno[2,3-d]pyrimidine-2,4(1H,3H)-dione] | 10 to 100 nM | 2.1 to 4 µg/mL (≈ 3.67 to 6.99 µM) | 2.1 to 4 µg/mL (≈ 3.67 to 6.99 µM) | 2.1 to 4 µg/mL (≈ 3.67 to 6.99 µM) | 2 to 10 nM
5 | COCCO[C@@H](Cn1c(=O)n([C@]2(C)CNC(=O)C2)c(=O)c2c(C)c(-n3nccn3)sc21)c1cc(F)ccc1OC [Compound I-115, 1-((R)-2-(5-fluoro-2-methoxyphenyl)-2-(2-methoxy-ethoxy)ethyl)-5-methyl-3-((S)-3-methyl-5-oxopyrrolidin-3-yl)-6-(2H-1,2,3-triazol-2-yl)thieno[2,3-d]pyrimidine-24(1H,3H)-dione] | 10 to 100 nM | 2.1 to 4 µg/mL (≈ 3.67 to 6.99 µM) | 2.1 to 4 µg/mL (≈ 3.67 to 6.99 µM) | 2.1 to 4 µg/mL (≈ 3.67 to 6.99 µM) | 0.7 to 2 nM
6 | COc1ccc(F)cc1[C@H](Cn1c(=O)n([C@H]2CCCN(C)C2=O)c(=O)c2c(C)c(-n3nccn3)sc21)OCCC#N [Compound I-116, 3-((R)-1-(5-fluoro-2-methoxyphenyl)-2-(5-methyl-3-((S)-1-methyl-2-oxopiperidin-3-yl)-2,4-dioxo-6-(2H-1,2,3-triazol-2-yl)-3,4-dihydrothieno[2,3-d]pyrimidin-1(2H)-yl)ethoxy)propanenitrile] | 10 to 100 nM | 2.1 to 4 µg/mL (≈ 3.61 to 6.88 µM) | 2.1 to 4 µg/mL (≈ 3.61 to 6.88 µM) | 2.1 to 4 µg/mL (≈ 3.61 to 6.88 µM) | 0.7 to 2 nM
7 | COc1ccc(F)cc1[C@H](Cn1c(=O)n([C@@H]2CCCN(C)C2=O)c(=O)c2c(C)c(-n3nccn3)sc21)OCCC#N [Compound I-117, 3-((R)-1-(5-fluoro-2-methoxyphenyl)-2-(5-methyl-3-((R)-1-methyl-2-oxopiperidin-3-yl)-2,4-dioxo-6-(2H-1,2,3-triazol-2-yl)-3,4-dihydrothieno[2,3-d]pyrimidin-1(2H)-yl)ethoxy)propanenitrile] | 2 to 10 nM | 2.1 to 4 µg/mL (≈ 3.61 to 6.88 µM) | 2.1 to 4 µg/mL (≈ 3.61 to 6.88 µM) | 2.1 to 4 µg/mL (≈ 3.61 to 6.88 µM) | 0.7 to 2 nM
8 | COc1ccc(F)cc1[C@H](Cn1c(=O)n([C@@]2(C)CNC(=O)C2)c(=O)c2c(C)c(-n3nccn3)sc21)OCCO [Compound I-118, 1-((R)-2-(5-fluoro-2-methoxyphenyl)-2-(2-hydroxy-ethoxy)ethyl)-5-methyl-3-((R)-3-methyl-5-oxopyrrolidin-3-yl)-6-(2H-1,2,3-triazol-2-yl)thieno[2,3-d]pyrimidine-2,4(1H,3H)-dione] | 10 to 100 nM | 2.1 to 4 µg/mL (≈ 3.76 to 7.16 µM) | 2.1 to 4 µg/mL (≈ 3.76 to 7.16 µM) | 2.1 to 4 µg/mL (≈ 3.76 to 7.16 µM) | 2 to 10 nM
9 | COc1ccc(F)cc1[C@H](Cn1c(=O)n([C@]2(C)CNC(=O)C2)c(=O)c2c(C)c(-n3nccn3)sc21)OCCO [Compound I-119, 1-((R)-2-(5-fluoro-2-methoxyphenyl)-2-(2-hydroxyethoxy)ethyl)-5-methyl-3-((S)-3-methyl-5-oxopyrrolidin-3-yl)-6-(2H-1,2,3-triazol-2-yl)thieno[2,3-d]pyrimidine-2,4(1H,3H)-dione] | 10 to 100 nM | 2.1 to 4 µg/mL (≈ 3.76 to 7.16 µM) | 2.1 to 4 µg/mL (≈ 3.76 to 7.16 µM) | 2.1 to 4 µg/mL (≈ 3.76 to 7.16 µM) | 2 to 10 nM
10 | COCCO[C@@H](Cn1c(=O)n([C@]2(C)CC(=O)N(C)C2)c(=O)c2c(C)c(-n3nccn3)sc21)c1cc(F)ccc1OC [Compound I-120, 3-((R)-1,3-dimethyl-5-oxopyrrolidin-3-yl)-1-((R)-2-(5-fluoro-2-methoxyphenyl)-2-(2-methoxyethoxy)ethyl)-5-methyl-6-(2H-1,2,3-triazol-2-yl)thieno[2,3-d]pyrimidine-2,4(1H,3H)-dione] | 10 to 100 nM | 2.1 to 4 µg/mL (≈ 3.58 to 6.82 µM) | 2.1 to 4 µg/mL (≈ 3.58 to 6.82 µM) | 2.1 to 4 µg/mL (≈ 3.58 to 6.82 µM) | 0.7 to 2 nM
11 | COc1ccc(F)cc1[C@H](Cn1c(=O)n([C@]2(C)CC(=O)N(C)C2)c(=O)c2c(C)c(-n3nccn3)sc21)OCCO [Compound I-121, 3-((R)-1,3-dimethyl-5-oxopyrrolidin-3-yl)-1-((R)-2-(5-fluoro-2-methoxyphenyl)-2-(2-hydroxyethoxy)ethyl)-5-methyl-6-(2H-1,2,3-triazol-2-yl)thieno[2,3-d]pyrimidine-2,4(1H,3H)-dione] | 10 to 100 nM | 2.1 to 4 µg/mL (≈ 3.67 to 6.99 µM) | 2.1 to 4 µg/mL (≈ 3.67 to 6.99 µM) | 2.1 to 4 µg/mL (≈ 3.67 to 6.99 µM) | 0.7 to 2 nM
12 | COCCO[C@@H](Cn1c(=O)n([C@@]2(C)CC(=O)N(C)C2)c(=O)c2c(C)c(-n3nccn3)sc21)c1cc(F)ccc1OC [Compound I-122, 3-((S)-1,3-dimethyl-5-oxopyrrolidin-3-yl)-1-((R)-2-(5-fluoro-2-methoxyphenyl)-2-(2-methoxyethoxy)ethyl)-5-methyl-6-(2H-1,2,3-triazol-2-yl)thieno[2,3-d]pyrimidine-2.4(1H, 3H)-dione] | 10 to 100 nM | 2.1 to 4 µg/mL (≈ 3.58 to 6.82 µM) | 2.1 to 4 µg/mL (≈ 3.58 to 6.82 µM) | 2.1 to 4 µg/mL (≈ 3.58 to 6.82 µM) | 2 to 10 nM
13 | COc1ccc(F)cc1[C@H](Cn1c(=O)n([C@@]2(C)CC(=O)N(C)C2)c(=O)c2c(C)c(-n3nccn3)sc21)OCCO [Compound I-123, 3-((S)-1,3-dimethyl-5-oxopyrrolidin-3-yl)-1-((R)-2-(5-fluoro-2-methoxyphenyl)-2-(2-hydroxyethoxy)ethyl)-5-methyl-6-(2H-1,2,3-triazol-2-yl)thieno[2,3-d]pyrimidine-2,4(1H,3H)-dione] | 10 to 100 nM | 2.1 to 4 µg/mL (≈ 3.67 to 6.99 µM) | 2.1 to 4 µg/mL (≈ 3.67 to 6.99 µM) | 2.1 to 4 µg/mL (≈ 3.67 to 6.99 µM) | 0.7 to 2 nM
14 | COCCO[C@@H](Cn1c(=O)n([C@]2(C)CCCNC2=O)c(=O)c2c(C)c(-n3nccn3)sc21)c1cc(F)ccc1OC [Compound I-124, 1-((R)-2-(5-fluoro-2-methoxyphenyl)-2-(2-methoxy-ethoxy)ethyl)-5-methyl-3-((R)-3-methyl-2-oxopiperidin-3-yl)-6-(2H-1,2,3-triazol-2-yl)thieno[2,3-d]pyrimidine-2,4(1H,3H)-dione] | 10 to 100 nM | 2.1 to 4 µg/mL (≈ 3.58 to 6.82 µM) | 2.1 to 4 µg/mL (≈ 3.58 to 6.82 µM) | 2.1 to 4 µg/mL (≈ 3.58 to 6.82 µM) | 2 to 10 nM
15 | COCCO[C@@H](Cn1c(=O)n([C@@]2(C)CCCNC2=O)c(=O)c2c(C)c(-n3nccn3)sc21)c1cc(F)ccc1OC [Compound I-125, 1-((R)-2-(5-fluoro-2-methoxyphenyl)-2-(2-methoxy-ethoxy)ethyl)-5-methyl-3-((S)-3-methyl-2-oxopiperidin-3-yl)-6-(2H-1,2,3-triazol-2-yl)thieno[2,3-d]pyrimidine-2,4(1H,3H)-dione] | 10 to 100 nM | 2.1 to 4 µg/mL (≈ 3.58 to 6.82 µM) | 2.1 to 4 µg/mL (≈ 3.58 to 6.82 µM) | 2.1 to 4 µg/mL (≈ 3.58 to 6.82 µM) | 2 to 10 nM
16 | COc1ccc(F)cc1[C@H](Cn1c(=O)n([C@]2(C)CCCNC2=O)c(=O)c2c(C)c(-n3nccn3)sc21)OCCO [Compound I-126, 1-((R)-2-(5-fluoro-2-methoxyphenyl)-2-(2-hydroxyethoxy)ethyl)-5-methyl-3-((R)-3-methyl-2-oxopiperidin-3-yl)-6-(2H, 1,2,3-triazol-2-yl)thieno[2,3-d]pyrimidine-2,4(1H,3H)-dione] | 2 to 10 nM | 2.1 to 4 µg/mL (≈ 3.67 to 6.99 µM) | 0.25 to 1 µg/mL (≈ 0.437 to 1.75 µM) | 2.1 to 4 µg/mL (≈ 3.67 to 6.99 µM) | 0.7 to 2 nM
17 | COc1ccc(F)cc1[C@H](Cn1c(=O)n([C@@]2(C)CCCNC2=O)c(=O)c2c(C)c(-n3nccn3)sc21)OCCO [Compound I-127, 1-((R)-2-(5-fluoro-2-methoxyphenyl)-2-(2-hydroxyethoxy)ethyl)-5-methyl-3-((S)-3-methyl-2-oxopiperidin-3-yl)-6-(2H-1,2,3-triazol-2-yl)thieno[2,3-d]pyrimidine-2,4(1H,3H)-dione] | 10 to 100 nM | 2.1 to 4 µg/mL (≈ 3.67 to 6.99 µM) | 2.1 to 4 µg/mL (≈ 3.67 to 6.99 µM) | 2.1 to 4 µg/mL (≈ 3.67 to 6.99 µM) | 0.7 to 2 nM
